Experimental data: publication PMC9120017, “Inhibition mechanism of the chloride channel TMEM16A by the pore blocker 1PBC” (Nature Communications, 2022)
Where two headings read alike, the source gives them in different places.

Target: T1, mouse TMEM16A mutant I512A (Mus musculus, UniProt Q8BHY3, I512A)
T1 construct: expressed in transfected cells; host or cells: HEK293T
T1 sequence (Q8BHY3 1-960 I512A): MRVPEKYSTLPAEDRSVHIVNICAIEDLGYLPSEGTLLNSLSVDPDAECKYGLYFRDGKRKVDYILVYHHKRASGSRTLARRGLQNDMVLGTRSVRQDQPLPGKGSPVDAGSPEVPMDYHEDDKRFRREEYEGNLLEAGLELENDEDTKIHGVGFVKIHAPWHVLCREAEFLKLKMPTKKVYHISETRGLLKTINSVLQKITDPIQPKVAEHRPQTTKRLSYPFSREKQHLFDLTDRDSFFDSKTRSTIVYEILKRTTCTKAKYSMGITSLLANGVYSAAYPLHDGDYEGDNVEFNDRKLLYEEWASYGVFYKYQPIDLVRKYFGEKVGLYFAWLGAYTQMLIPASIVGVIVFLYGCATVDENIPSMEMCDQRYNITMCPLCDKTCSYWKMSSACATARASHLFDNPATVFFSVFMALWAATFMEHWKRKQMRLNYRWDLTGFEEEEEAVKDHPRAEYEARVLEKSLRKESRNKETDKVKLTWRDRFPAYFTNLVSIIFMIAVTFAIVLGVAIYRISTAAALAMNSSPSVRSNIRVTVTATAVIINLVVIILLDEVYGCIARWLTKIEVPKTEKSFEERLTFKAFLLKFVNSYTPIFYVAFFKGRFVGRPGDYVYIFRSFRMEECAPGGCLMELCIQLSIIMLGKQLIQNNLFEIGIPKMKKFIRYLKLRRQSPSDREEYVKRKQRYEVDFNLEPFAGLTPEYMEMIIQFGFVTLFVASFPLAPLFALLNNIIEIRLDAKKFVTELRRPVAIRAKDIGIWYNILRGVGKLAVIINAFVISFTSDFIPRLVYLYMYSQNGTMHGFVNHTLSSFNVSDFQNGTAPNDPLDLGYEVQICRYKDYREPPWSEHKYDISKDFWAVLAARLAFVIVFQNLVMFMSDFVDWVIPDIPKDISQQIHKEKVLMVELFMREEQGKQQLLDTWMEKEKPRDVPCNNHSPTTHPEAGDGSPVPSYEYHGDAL
Experiment: Inside-out patch recording of 1PBC block, mutant I512A
Assay type: cell-based
Details: for remaining activity at 100 µM: 100 µM 1PBC
Protocol: HEK293T cells (ATCC CRL-1573) were maintained in Dulbecco’s modified Eagle’s medium (DMEM; Sigma-Aldrich) supplemented with 10 U ml^−1 penicillin, 0.1 mg ml^−1 streptomycin (Sigma-Aldrich), 2 mM L-glutamine (Sigma-Aldrich), and 10% FBS (Sigma-Aldrich) in a humidified atmosphere containing 5% CO2 at 37 °C. HEK293S GnTI^− cells (ATCC CRL-3022) were maintained in HyClone HyCell TransFx-H medium (GE Healthcare) supplemented with 10 U ml^−1 penicillin, 0.1 mg ml^−1 streptomycin, 4 mM L-glutamine, 0.15% poloxamer 188 (Sigma-Aldrich), and 1% FBS in an atmosphere containing 5% CO2 at 185 rpm at 37 °C. The ac splice variant of mouse TMEM16A (UniProt ID: Q8BHY3), mouse TMEM16B (UniProt ID: Q8CFW1), or mouse TMEM16F (UniProt ID: Q6P9J9) bearing a 3C cleavage site, a Venus YFP, a Myc tag, and a Streptavidin-binding peptide (SBP) downstream of the open reading frame in a modified pcDNA3.1 vector (Invitrogen) were used as described previously[21],[31]. Mutations were introduced using a modified QuikChange method[58] and were verified by sequencing.
HEK293T cells were transfected with 3–4 μg DNA per 6 cm Petri dish using the calcium phosphate co-precipitation method and were used within 24–96 h after transfection. Recordings were performed on inside-out patches excised from HEK293T cells expressing the construct of interest. Patch pipettes were pulled from borosilicate glass capillaries (O.D. 1.5 mm, I.D. 0.86 mm, Sutter Instrument) and were fire-polished with a microforge (Narishige) before use. Pipette resistance was typically 3–8 MΩ when filled with the recording solutions detailed below. Seal resistance was typically 4 GΩ or higher. Voltage-clamp recordings were made using Axopatch 200B, Digidata 1550, and Clampex 10.7 (Molecular Devices). Analog signals were filtered with the in-built 4-pole Bessel filter at 10 kHz and were digitized at 20 kHz. Solution exchange was achieved using a gravity-fed system through a theta glass pipette mounted on an ultra-fast piezo-driven stepper (Siskiyou). […] All recordings were performed at 20 °C.
A symmetrical ionic condition was used throughout. Stock solution with Ca^2+-EGTA contained 150 mM NaCl, 5.99 mM Ca(OH)2, 5 mM EGTA, and 10 mM HEPES at pH 7.40. Stock solution with EGTA contained 150 mM NaCl, 5 mM EGTA, and 10 mM HEPES at pH 7.40. Free Ca^2+ concentrations were adjusted by mixing the stock solutions at the required ratios calculated using the WEBMAXC program (http://web.stanford.edu/~cpatton/webmaxcS.htm). Patch pipettes were filled with the stock solution with Ca^2+-EGTA, which has a free Ca^2+ concentration of 1 mM. 1PBC (ChemBridge) stock was reconstituted in anhydrous DMSO (Sigma-Aldrich) at 100 mM and stored at −20 °C. Working solutions with 1PBC were prepared by serial dilution. Unless otherwise stated, experiments were performed at a saturating Ca^2+ concentration as shown in Supplementary Table 1 and the primary data were corrected for current rundown as described previously[21],[25].
Concentration-response relations, obtained from the ratio of the I-V plots before and after the application of the blocker, were fitted to the Hill equation,1 I/Imax=1/1+IC50/[blocker]^h where I/Imax is the normalized current responses, IC50 defines the concentration at which inhibition is at its half-maximum, and h is the Hill coefficient.

- IC50 (0 mV, 2 µM Ca2+): 30.7 µM
- remaining activity at 3 µM (3 µM 1PBC, +80 mV, saturating Ca2+ (2 µM), read-out: I/Imax): 84.4%
- remaining activity at 3 µM (3 µM 1PBC, -80 mV, saturating Ca2+ (2 µM), read-out: I/Imax): 94.5%
- remaining activity at 10 µM (10 µM 1PBC, +80 mV, saturating Ca2+ (2 µM), read-out: I/Imax): 63.3%
- remaining activity at 10 µM (10 µM 1PBC, -80 mV, saturating Ca2+ (2 µM), read-out: I/Imax): 87.2%
- remaining activity at 30 µM (30 µM 1PBC, +80 mV, saturating Ca2+ (2 µM), read-out: I/Imax): 36.4%
- remaining activity at 30 µM (30 µM 1PBC, -80 mV, saturating Ca2+ (2 µM), read-out: I/Imax): 65.6%
- remaining activity at 100 µM (+80 mV, saturating Ca2+ (2 µM), read-out: I/Imax): 14%
- remaining activity at 100 µM (-80 mV, saturating Ca2+ (2 µM), read-out: I/Imax): 36%
- remaining activity at 3 µM (1PBC 3, 0 mV, read-out: fraction of unblocked current): 89.8%
- remaining activity at 3 µM (1PBC 3, 20 mV, read-out: fraction of unblocked current): 88.3%
- remaining activity at 3 µM (1PBC 3, 40 mV, read-out: fraction of unblocked current): 86.4%
- remaining activity at 3 µM (1PBC 3, 60 mV, read-out: fraction of unblocked current): 85.9%
- remaining activity at 3 µM (1PBC 3, 80 mV, read-out: fraction of unblocked current): 84.4%
- remaining activity at 3 µM (1PBC 3, 100 mV, read-out: fraction of unblocked current): 83.9%
- remaining activity at 3 µM (1PBC 3, 120 mV, read-out: fraction of unblocked current): 84.8%
- remaining activity at 3 µM (1PBC 3, 140 mV, read-out: fraction of unblocked current): 86.4%
- remaining activity at 3 µM (1PBC 3, -20 mV, read-out: fraction of unblocked current): 91.3%
- remaining activity at 3 µM (1PBC 3, -40 mV, read-out: fraction of unblocked current): 92.6%
- remaining activity at 3 µM (1PBC 3, -60 mV, read-out: fraction of unblocked current): 93.3%
- remaining activity at 3 µM (1PBC 3, -80 mV, read-out: fraction of unblocked current): 94.5%
- remaining activity at 3 µM (1PBC 3, -100 mV, read-out: fraction of unblocked current): 94.8%
- remaining activity at 3 µM (1PBC 3, -120 mV, read-out: fraction of unblocked current): 95.1%
- remaining activity at 3 µM (1PBC 3, -140 mV, read-out: fraction of unblocked current): 96%
- remaining activity at 10 µM (1PBC 10, 0 mV, read-out: fraction of unblocked current): 76.6%
- remaining activity at 10 µM (1PBC 10, 20 mV, read-out: fraction of unblocked current): 72.7%
- remaining activity at 10 µM (1PBC 10, 40 mV, read-out: fraction of unblocked current): 68.9%
- remaining activity at 10 µM (1PBC 10, 60 mV, read-out: fraction of unblocked current): 65.9%
- remaining activity at 10 µM (1PBC 10, 80 mV, read-out: fraction of unblocked current): 63.3%
- remaining activity at 10 µM (1PBC 10, 100 mV, read-out: fraction of unblocked current): 61.7%
- remaining activity at 10 µM (1PBC 10, 120 mV, read-out: fraction of unblocked current): 61.7%
- remaining activity at 10 µM (1PBC 10, 140 mV, read-out: fraction of unblocked current): 63.1%
- remaining activity at 10 µM (1PBC 10, -20 mV, read-out: fraction of unblocked current): 80.4%
- remaining activity at 10 µM (1PBC 10, -40 mV, read-out: fraction of unblocked current): 82.9%
- remaining activity at 10 µM (1PBC 10, -60 mV, read-out: fraction of unblocked current): 85.2%
- remaining activity at 10 µM (1PBC 10, -80 mV, read-out: fraction of unblocked current): 87.2%
- remaining activity at 10 µM (1PBC 10, -100 mV, read-out: fraction of unblocked current): 88.6%
- remaining activity at 10 µM (1PBC 10, -120 mV, read-out: fraction of unblocked current): 89%
- remaining activity at 10 µM (1PBC 10, -140 mV, read-out: fraction of unblocked current): 89.6%
- remaining activity at 30 µM (1PBC 30, 0 mV, read-out: fraction of unblocked current): 50.3%
- remaining activity at 30 µM (1PBC 30, 20 mV, read-out: fraction of unblocked current): 46.3%
- remaining activity at 30 µM (1PBC 30, 40 mV, read-out: fraction of unblocked current): 42.2%
- remaining activity at 30 µM (1PBC 30, 60 mV, read-out: fraction of unblocked current): 39%
- remaining activity at 30 µM (1PBC 30, 80 mV, read-out: fraction of unblocked current): 36.4%
- remaining activity at 30 µM (1PBC 30, 100 mV, read-out: fraction of unblocked current): 34.7%
- remaining activity at 30 µM (1PBC 30, 120 mV, read-out: fraction of unblocked current): 34.2%
- remaining activity at 30 µM (1PBC 30, 140 mV, read-out: fraction of unblocked current): 35.1%
- remaining activity at 30 µM (1PBC 30, -20 mV, read-out: fraction of unblocked current): 54.2%
- remaining activity at 30 µM (1PBC 30, -40 mV, read-out: fraction of unblocked current): 58.4%
SMILES: N#Cc1c(C(F)(F)F)cc(O)n2c1nc1ccccc12 [1PBC]
